Results on 6 molecules are retold here after patent publication US9878982B2, “Pyridine derivatives and anti-mycobacterial use thereof” (priority 2014, dated 2018).

The subject of assay [1] is rifampicin-resistant M. tuberculosis strain (rRMP). The experiment in a line: microbe, parasite or virus in culture. It is filed as cell-based, Mycobacterium tuberculosis. The settings on record: for MIC: Mycobacterium tuberculosis, read-out: MABA MIC vs. rRMP, rifampicin-resistant M. tuberculosis strain; for MIC / MABA MIC vs. rRMP: two values per compound; for MABA MIC vs. rRMP: rifampicin-resistant M. tuberculosis strain. (Alamar Blue is a resazurin reagent that responds to reducing activity.)

Assay [2] concerns isoniazide-resistant Mycobacterium tuberculosis strains (rINH). In words: microbe, parasite or virus in culture. It is filed as cell-based. The settings on record: for MIC: Mycobacterium tuberculosis, read-out: MABA MIC vs. rINH, isoniazide-resistant strain; for MIC / MABA MIC vs. rINH: two values per compound; for MABA MIC vs. rINH: isoniazide-resistant strain.

The structures appear in SMILES notation. Values after ≈ are worked out from the molar mass of the structure shown. Where only a bound is given, the exact number is not on record here.

On to `COc1ncc(-c2ccccc2)cc1C(c1ccccc1)C(O)(CCN(C)C)c1cccc2ccccc12` (stereo not drawn) [Compound 9, 4-(dimethylamino)-1-(2-methoxy-5-phenylpyridin-3-yl)-2-(naphthalen-1-yl)-1-phenylbutan-2-ol], for which, in assay [1], the MIC amounted to 0.9 µM (≈ 0.452 µg/mL) and the “MABA MIC vs. rRMP” value worked out at 0.91 µM. For the same molecule, in assay [2], the MIC was 0.47 µM (≈ 0.236 µg/mL) and the “MABA MIC vs. rINH” value came to 0.44 µM.

For the molecule `NNC(=O)c1ccncc1` [isoniazide, isoniazid, reference compound], in assay [1], the MIC is 0.83 µM (≈ 0.114 µg/mL) and the “MABA MIC vs. rRMP” value was found to be 0.65 µM. In addition, the MIC in assay [2] was greater than 8 µM.

For the molecule `COc1ncc(-c2ccc(Br)cc2)cc1C(c1ccccc1)C(O)(CCN(C)C)c1cccc2ccccc12` (stereo not drawn) [Compound 133, 1-(5-(4-bromophenyl)-2-methoxypyridin-3-yl)-4-(dimethylamino)-2-(naphthalen-1-yl)-1-phenylbutan-2-ol], in assay [1], the “inhibitory activity against rifampin-resistant strain (in words)” value is recorded as “comparable to that of the marketed anti-TB drug, Bedaquiline”; the MIC worked out at 0.24 µM (≈ 0.14 µg/mL); the “MABA MIC vs. rRMP” value is 0.34 µM. In addition, in assay [2], the “inhibitory activity against isoniazid-resistant strain (in words)” value is recorded as “comparable to that of the marketed anti-TB drug, Bedaquiline”; the MIC came out at 0.22 µM (≈ 0.128 µg/mL); the “MABA MIC vs. rINH” value is 0.12 µM.

In the case of `CO[C@H]1/C=C/O[C@@]2(C)Oc3c(C)c(O)c4c(O)c(c(/C=N/N5CCN(C)CC5)c(O)c4c3C2=O)NC(=O)/C(C)=C\C=C\[C@H](C)[C@H](O)[C@@H](C)[C@@H](O)[C@@H](C)[C@H](OC(C)=O)[C@@H]1C` [rifampin, reference compound], the MIC in assay [1] was greater than 4 µM; in assay [2], less than 0.016 µM.

With `COc1ncc(-c2ccc(Cl)cc2)cc1C(c1ccccc1)C(O)(CCN(C)C)c1cccc2ccccc12` (stereo not drawn) [Compound 115, 1-(5-(4-chlorophenyl)-2-methoxypyridin-3-yl)-4-(dimethylamino)-2-(naphthalen-1-yl)-1-phenylbutan-2-ol], in assay [1], the “inhibitory activity against rifampin-resistant strain (in words)” value is listed as “comparable to that of the marketed anti-TB drug, Bedaquiline” and the MIC is 0.18 µM (≈ 0.0967 µg/mL). In assay [2], the “inhibitory activity against isoniazid-resistant strain (in words)” value is on record as “comparable to that of the marketed anti-TB drug, Bedaquiline”; the MIC came to 0.11 µM (≈ 0.0591 µg/mL); the “MABA MIC vs. rINH” value was found to be 0.12 µM.

Take `COc1nc2ccc(Br)cc2cc1[C@@H](c1ccccc1)[C@@](O)(CCN(C)C)c1cccc2ccccc12` [Bedaquiline, reference compound]: in assay [1], the MIC came to 0.12 µM (≈ 0.0667 µg/mL) and the “MABA MIC vs. rRMP” value is 0.13 µM. Also, in assay [2], the MIC was 0.07 µM (≈ 0.0389 µg/mL) and the “MABA MIC vs. rINH” value worked out at 0.09 µM.
